# Laboratory results published in PubChem BioAssay (NCI).
#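 Step 1: Grow cells in 96-well plates. Step 2: Expose to compound for 48 hours at 5 concentrations. Step 3: Interpolate endpoints linearly; if unreached, use highest concentration. The concentration for full growth arrest is given as TGI.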
# How the values were obtained:
# Assay in all cases: NCI anticancer screen, dose series, 48 h
# 786-0 renal = tested on: 786-0 renal
# A498 renal = tested on: A498 renal
# A549 NSCLC = tested on: A549 NSCLC
# ACHN renal = tested on: ACHN renal
# CAKI-1 renal = tested on: CAKI-1 renal
# CCRF-CEM leukemia = tested on: CCRF-CEM leukemia
# COLO 205 colon = tested on: COLO 205 colon
# DLD-1 colon = tested on: DLD-1 colon
# DMS 114 small cell lung = tested on: DMS 114 small cell lung
# DMS 273 small cell lung = tested on: DMS 273 small cell lung
# HCC-2998 colon = tested on: HCC-2998 colon
# HCT-116 colon = tested on: HCT-116 colon
# HCT-15 colon = tested on: HCT-15 colon
# HL-60(TB) leukemia = tested on: HL-60(TB) leukemia
# HOP-18 NSCLC = tested on: HOP-18 NSCLC
# HOP-62 NSCLC = tested on: HOP-62 NSCLC
# HOP-92 NSCLC = tested on: HOP-92 NSCLC
# HT29 colon = tested on: HT29 colon
# IGROV1 ovarian = tested on: IGROV1 ovarian
# K-562 leukemia = tested on: K-562 leukemia
# KM12 colon = tested on: KM12 colon
# KM20L2 colon = tested on: KM20L2 colon
# LOX IMVI melanoma = tested on: LOX IMVI melanoma
# LXFL 529 NSCLC = tested on: LXFL 529 NSCLC
# M14 melanoma = tested on: M14 melanoma
# M19-MEL melanoma = tested on: M19-MEL melanoma
# MALME-3M melanoma = tested on: MALME-3M melanoma
# MOLT-4 leukemia = tested on: MOLT-4 leukemia
# NCI-H460 lung = tested on: NCI-H460 lung
# NCI-H522 lung = tested on: NCI-H522 lung
# OVCAR-4 ovarian = tested on: OVCAR-4 ovarian
# OVCAR-5 ovarian = tested on: OVCAR-5 ovarian
# OVCAR-8 ovarian = tested on: OVCAR-8 ovarian
# RPMI-8226 leukemia = tested on: RPMI-8226 leukemia
# RXF 393 renal = tested on: RXF 393 renal
# SF-268 CNS = tested on: SF-268 CNS
# SF-295 CNS = tested on: SF-295 CNS
# SF-539 CNS = tested on: SF-539 CNS
# SK-MEL-2 melanoma = tested on: SK-MEL-2 melanoma
# SK-MEL-5 melanoma = tested on: SK-MEL-5 melanoma
# SK-OV-3 ovarian = tested on: SK-OV-3 ovarian
# SN12C renal = tested on: SN12C renal
# SNB-19 CNS = tested on: SNB-19 CNS
# SNB-75 CNS = tested on: SNB-75 CNS
# SNB-78 CNS = tested on: SNB-78 CNS
# SR leukemia = tested on: SR leukemia
# SW-620 colon = tested on: SW-620 colon
# TK-10 renal = tested on: TK-10 renal
# U251 CNS = tested on: U251 CNS
# UACC-257 melanoma = tested on: UACC-257 melanoma
# UACC-62 melanoma = tested on: UACC-62 melanoma
# UO-31 renal = tested on: UO-31 renal
# NCI-H226 lung = tested on: NCI-H226 lung
# NCI-H23 lung = tested on: NCI-H23 lung
# OVCAR-3 ovarian = tested on: OVCAR-3 ovarian
# SK-MEL-28 melanoma = tested on: SK-MEL-28 melanoma
# XF 498 CNS = tested on: XF 498 CNS
structure (smiles),measurement,setting,value
CCOC(=O)N1CCc2cc(OC)c(OC)c3c2C1CC3=O (configuration not stated),TGI,786-0 renal,> 100 µM
same,TGI,A498 renal,> 100 µM
same,TGI,A549 NSCLC,> 100 µM
same,TGI,ACHN renal,> 100 µM
same,TGI,CAKI-1 renal,> 100 µM
same,TGI,CCRF-CEM leukemia,> 100 µM
same,TGI,COLO 205 colon,> 100 µM
same,TGI,DLD-1 colon,> 100 µM
same,TGI,DMS 114 small cell lung,> 100 µM
same,TGI,DMS 273 small cell lung,> 100 µM
same,TGI,HCC-2998 colon,> 100 µM
same,TGI,HCT-116 colon,> 100 µM
same,TGI,HCT-15 colon,> 100 µM
same,TGI,HL-60(TB) leukemia,> 100 µM
same,TGI,HOP-18 NSCLC,> 100 µM
same,TGI,HOP-62 NSCLC,> 100 µM
same,TGI,HOP-92 NSCLC,> 100 µM
same,TGI,HT29 colon,> 100 µM
same,TGI,IGROV1 ovarian,> 100 µM
same,TGI,K-562 leukemia,> 100 µM
same,TGI,KM12 colon,> 100 µM
same,TGI,KM20L2 colon,> 100 µM
same,TGI,LOX IMVI melanoma,> 100 µM
same,TGI,LXFL 529 NSCLC,> 100 µM
same,TGI,M14 melanoma,> 100 µM
same,TGI,M19-MEL melanoma,> 100 µM
same,TGI,MALME-3M melanoma,> 100 µM
same,TGI,MOLT-4 leukemia,> 100 µM
same,TGI,NCI-H460 lung,> 100 µM
same,TGI,NCI-H522 lung,> 100 µM
same,TGI,OVCAR-4 ovarian,> 100 µM
same,TGI,OVCAR-5 ovarian,> 100 µM
same,TGI,OVCAR-8 ovarian,> 100 µM
same,TGI,RPMI-8226 leukemia,> 100 µM
same,TGI,RXF 393 renal,> 100 µM
same,TGI,SF-268 CNS,> 100 µM
same,TGI,SF-295 CNS,> 100 µM
same,TGI,SF-539 CNS,> 100 µM
same,TGI,SK-MEL-2 melanoma,> 100 µM
same,TGI,SK-MEL-5 melanoma,> 100 µM
same,TGI,SK-OV-3 ovarian,> 100 µM
same,TGI,SN12C renal,> 100 µM
same,TGI,SNB-19 CNS,> 100 µM
same,TGI,SNB-75 CNS,> 100 µM
same,TGI,SNB-78 CNS,> 100 µM
same,TGI,SR leukemia,> 100 µM
same,TGI,SW-620 colon,> 100 µM
same,TGI,TK-10 renal,> 100 µM
same,TGI,U251 CNS,> 100 µM
same,TGI,UACC-257 melanoma,> 100 µM
same,TGI,UACC-62 melanoma,> 100 µM
same,TGI,UO-31 renal,> 100 µM
CC(=O)Oc1cc(OC(C)=O)c2c(=O)c3ccccc3[nH]c2c1,TGI,A549 NSCLC,> 100 µM
same,TGI,ACHN renal,> 100 µM
same,TGI,DLD-1 colon,> 100 µM
same,TGI,DMS 114 small cell lung,> 100 µM
same,TGI,DMS 273 small cell lung,> 100 µM
same,TGI,HCT-116 colon,> 100 µM
same,TGI,HCT-15 colon,> 100 µM
same,TGI,HOP-18 NSCLC,51.2 µM
same,TGI,HT29 colon,> 100 µM
same,TGI,IGROV1 ovarian,81.1 µM
same,TGI,KM12 colon,> 100 µM
same,TGI,LOX IMVI melanoma,> 100 µM
same,TGI,LXFL 529 NSCLC,> 100 µM
same,TGI,M19-MEL melanoma,86.9 µM
same,TGI,MALME-3M melanoma,67.9 µM
same,TGI,MOLT-4 leukemia,> 100 µM
same,TGI,NCI-H226 lung,88.9 µM
same,TGI,NCI-H23 lung,> 100 µM
same,TGI,NCI-H460 lung,> 100 µM
same,TGI,NCI-H522 lung,76.6 µM
same,TGI,OVCAR-3 ovarian,83.7 µM
same,TGI,OVCAR-4 ovarian,> 100 µM
same,TGI,OVCAR-8 ovarian,> 100 µM
same,TGI,RXF 393 renal,> 100 µM
same,TGI,SF-268 CNS,> 100 µM
same,TGI,SF-295 CNS,> 100 µM
same,TGI,SF-539 CNS,47.1 µM
same,TGI,SK-MEL-2 melanoma,> 100 µM
same,TGI,SK-MEL-28 melanoma,> 100 µM
same,TGI,SK-MEL-5 melanoma,39.1 µM
same,TGI,SK-OV-3 ovarian,49.5 µM
same,TGI,SN12C renal,> 100 µM
same,TGI,SNB-19 CNS,> 100 µM
same,TGI,SNB-75 CNS,92.8 µM
same,TGI,SNB-78 CNS,> 100 µM
same,TGI,TK-10 renal,> 100 µM
same,TGI,UACC-257 melanoma,85.1 µM
same,TGI,UACC-62 melanoma,> 100 µM
same,TGI,UO-31 renal,41.6 µM
same,TGI,XF 498 CNS,51.9 µM
